Patent US20210040089A1, “KRAS MUTANT PROTEIN INHIBITORS” (Jacobio Pharmaceuticals Co., Ltd., priority 2019, published 2021)
pIC50: −log10 of the molar value.

Columns and labels:
KRAS G12C = biological target: T1, KRAS G12C (Homo sapiens, UniProt P01116, G12C); assay: SOS1 catalyzed nucleotide exchange assay (TR-FRET); format: biochemical; details: GDP-loaded HIS-KRAS(G12C), 1 hour pre-incubation with compound
T1 construct: HIS-KRAS (G12C, aa 2-185, Sino biological); purchased Sino biological
Procedure: 1. SOS1 Catalyzed Nucleotide Exchange Assay
HIS-KRAS (G12C, aa 2-185, Sino biological) was diluted to […] EDTA buffer (20 mM HEPES, pH 7.4, 50 mM NaCl, 10 mM EDA, 0.01% (v/v) Tween-20) and incubated for 30 min at 25° C. The EDTA pretreated HIS-KRAS(G12C) was diluted to 12 nM in assay buffer (25 mM HEPES, pH 7.4, 120 mM NaCl, 5 mM MgCl2, 1 mM DTI, 0.01% (v/v) Tween 20, 0.1% (w/v) BSA) containing 120 nM GDP(Sigma) and Mab Anti 6HIS-Tb cryptate Gold(Cisbio) and incubated for 1 hour at 25° C. to prepare GDP-loaded HIS-KRAS(G12C). The GDP-loaded HIS-KRAS(G12C) was pre-incubation with diluted compounds in a 384-well plate (Greiner) for 1 hour, then purified SOS 1ExD (Flag tag, aa 564-1049) and BODIPY™FL GTP (Invitrogen) were added to the assay wells (Final concentration: 3 nM HIS-KRAS(G12C), 2 μM SOS1 ExD, 80 nM BODIPY™FL GTP, 21 ng/mL MAb Anti 6HS-Tb cryptate Gold) and incubated for 4 hours at 25° C. TR-FRET signals were then read on Tecan Spark multimode microplate reader. The parameters were F486: Excitation 340 (35) nm, Emission 486 (10) nm, Lag time 100 μs, Integration time […]; F515: Excitation 340 (35) nm, Emission 515 (10) nm, Lag time […], Integration time 200 s. TR-FRET ratios for each individual wells were calculated by equation: TR-FRET ratio=(Signal F515/Signal F486)*10000. Then the data were analyzed using a 4-parameter logistic model to calculate IC50 values.

[1] = tested on: Phospho-ERK1/2(THR202/TYR204) in NCI-H358 cells express KRAS G12C; assay: Phospho-ERK1/2(THR202/TYR204) HTRF assay; format: cell-based; details: Homo sapiens; NCI-H358, 2 hours incubation; read-out: p-ERK inhibition in NCI-H358 IC50
Procedure: NCI-H358 cells express KRAS G12C were cultured in RPMI 1640 medium (Gibco) containing 10% fetal bovine serum (Gibco). Cells in culture medium were plated in 96-well plates at a concentration of 40,000 cells/well and allowed to attach overnight. The next day, culture medium was removed and added compounds diluted in assay medium (RPMI 1640, 0.1% EFBS). After 2 hours incubation in a 37° C./5% CO2 cell incubator, the assay medium was removed, then 50 μL of 1× supplemented lysis buffer (Cisbio) was added and the plates were incubated at 25° C. for 45 min with shaking. 10 μL of cell lysates from the 96-well plates were transferred to a 384-well plate (Greiner) containing 2.5 µL/well HTRF® pre-mixed antibodies (Cisbio 64AERPEH).
Incubate 4 hours at 25° C. and then read HTRF signals on Tecan Spark multimode microplate reader. The data were analyzed using a 4-parameter logistic model to calculate IC50 values.

[2] = tested on: NCI-H358 cells express KRAS G12C; assay: Cell growth inhibition assay (CCK-8); format: cell-based; details: Homo sapiens, 144 h; NCI-H358, 6 days incubation
Procedure: 3. Cell Growth inhibition assay
NCI-H358 cells express KRAS G12C were cultured in RPMI 1640 medium (Gibco) containing 10% fetal bovine serum (Gibco). Cells in culture medium were plated in 96-well plates at a concentration of 3000 cells/well ([…]) and allowed to attach overnight. The next day, compounds were diluted in culture medium and added to the plates. After 6 days incubation in a 37° C./5% CO2 cell incubator, the medium was removed, then 100 μL of 1×CCK-8 (MCE) in culture medium was added in each well. The plates were incubated 1.5-2 hours in a 37° C./5% CO2 cell incubator. OD450 signals were read on Tecan Spark multimode microplate reader and analyzed using a 4-parameter logistic model to calculate IC50 values.

T1 sequence (P01116 2-185 isoform P01116-2 G12C): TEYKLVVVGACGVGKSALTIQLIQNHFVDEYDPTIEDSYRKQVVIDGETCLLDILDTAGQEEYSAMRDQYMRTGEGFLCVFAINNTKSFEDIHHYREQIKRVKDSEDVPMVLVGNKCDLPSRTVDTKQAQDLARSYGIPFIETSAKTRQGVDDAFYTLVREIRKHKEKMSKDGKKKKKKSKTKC

Row | SMILES | pIC50 (KRAS G12C) | pIC50 [1] | pIC50 [2]
1 | COC/C=C/C(=O)N1CCN(c2nc(OCC3(CN(C)C)CC3)nc3c2CCN(c2cccc4cccc(C)c24)C3)CC1CC#N (stereo not shown) [Compound 70, (E)-2-(4-(2-((1-((dimethylamino)methyl)cyclopropyl)methoxy)-7-(8-methylnaphthalen-1-yl)-5,6,7,8-tetrahydropyrido[3,4-d]pyrimidin-4-yl)-1-(4-methoxybut-2-enoyl)piperazin-2-yl)acetonitrile] | 8.47 | 6.76 | 6.71
2 | C=CC(=O)N1CCN(c2nc(OC(C)C3(CN(C)C)CC3)nc3c2CCN(c2cccc4cccc(C)c24)C3)CC1CC#N (stereo not shown) [Compound 57, 2-(1-acryloyl-4-(2-(1-(1-((dimethylamino)methyl)cyclopropyl)ethoxy)-7-(8-methylnaphthalen-1-yl)-5,6,7,8-tetrahydropyrido[3,4-d]pyrimidin-4-yl)piperazin-2-yl)acetonitrile] | 7.55 | 6.53 | 6.28
3 | C=CC(=O)N1CCN(c2nc(OCC3(CN4CC(F)C4)CC3)nc3c2CCN(c2cccc4cccc(C)c24)C3)CC1CC#N (stereo not shown) [Compound 62, 2-(1-acryloyl-4-(2-((1-((3-fluoroazetidin-1-yl)methyl)cyclopropyl)methoxy)-7-(8-methylnaphthalen-1-yl)-5,6,7,8-tetrahydropyrido[3,4-d]pyrimidin-4-yl)piperazin-2-yl)acetonitrile] | 8.63 | 7.37 | 7.17
4 | C/C=C/C(=O)N1CCN(c2nc(OCC3(CN4CCCC4)CC3)nc3c2CCN(c2cccc4cccc(C)c24)C3)CC1CC#N (stereo not shown) [Compound 74, (E)-2-(1-(but-2-enoyl)-4-(7-(8-methylnaphthalen-1-yl)-2-((1-(pyrrolidin-1-ylmethyl)cyclopropyl)methoxy)-5,6,7,8-tetrahydropyrido[3,4-d]pyrimidin-4-yl)piperazin-2-yl)acetonitrile] | 7.18 | < 6.30 | 5.82
5 | C=CC(=O)N1CCN(c2nc(OCC3CCC(N(C)C)C3)nc3c2CCN(c2cccc4ccccc24)C3)CC1CC#N (stereo not shown) [Compound 17, 2-(1-acryloyl-4-(2-((3-(dimethylamino)cyclopentyl)methoxy)-7-(naphthalen-1-yl)-5,6,7,8-tetrahydropyrido[3,4-d]pyrimidin-4-yl)piperazin-2-yl)acetonitrile] | 7.08 | 6.51 | 6.52
6 | CN(C)CC1(COc2nc3c(c(N4CCN(C(=O)/C=C/CF)[C@@H](CC#N)C4)n2)CCN(c2cccc4cccc(Cl)c24)C3)CC1 [Compound 84, (S,E)-2-(4-(7-(8-chloronaphthalen-1-yl)-2-((1-((dimethylamino)methyl)cyclopropyl)methoxy)-5,6,7,8-tetrahydropyrido[3,4-d]pyrimidin-4-yl)-1-(4-fluorobut-2-enoyl)piperazin-2-yl)acetonitrile] | 8.80 | 7.10 | 7.61
7 | C=CC(=O)N1CCN(c2nc(OCC3(CN4CCC4)CC3)nc3c2CCN(c2cccc4cccc(Cl)c24)C3)CC1CC#N (stereo not shown) [Compound 42, 2-(1-acryloyl-4-(2-((1-(azetidin-1-ylmethyl)cyclopropyl)methoxy)-7-(8-chloronaphthalen-1-yl)-5,6,7,8-tetrahydropyrido[3,4-d]pyrimidin-4-yl)piperazin-2-yl)acetonitrile] | 8.28 | 7.20 | 6.93
8 | C=CC(=O)N1CCN(c2nc(OCC3(CN4CCCC4)CC3)nc3c2CCN(c2cccc4ccccc24)C3)CC1CC#N (stereo not shown) [Compound 4, 2-(1-acryloyl-4-(7-(naphthalen-1-yl)-2-((1-(pyrrolidin-1-ylmethyl)cyclopropyl)methoxy)-5,6,7,8-tetrahydropyrido[3,4-d]pyrimidin-4-yl)piperazin-2-yl)acetonitrile] | 7.72 | 7.01 | 7.03
9 | C=CC(=O)N1CCN(c2nc(OCC3(CN4CCC4)CC3)nc3c2CCN(c2cccc4ccccc24)C3)CC1CC#N (stereo not shown) [Compound 41, 2-(1-acryloyl-4-(2-((1-(azetidin-1-ylmethyl)cyclopropyl)methoxy)-7-(naphthalen-1-yl)-5,6,7,8-tetrahydropyrido[3,4-d]pyrimidin-4-yl)piperazin-2-yl)acetonitrile] | 7.87 | 6.83 | 6.75
10 | Cc1cccc2cccc(N3CCc4c(nc(OCC5(CN(C)C)CC5)nc4N4CCN(C(=O)/C=C/CO)C(CC#N)C4)C3)c12 (stereo not shown) [Compound 69, (E)-2-(4-(2-((1-((dimethylamino)methyl)cyclopropyl)methoxy)-7-(8-methylnaphthalen-1-yl)-5,6,7,8-tetrahydropyrido[3,4-d]pyrimidin-4-yl)-1-(4-hydroxybut-2-enoyl)piperazin-2-yl)acetonitrile] | 8.56 | 6.80 | 7.11
11 | C=CC(=O)N1CCN(c2nc(OCC3(CN4CCCC4)CC3)nc3c2CCN(c2cccc(F)c2C(F)(F)F)C3)CC1CC#N (stereo not shown) [Compound 34, 2-(1-acryloyl-4-(7-(3-fluoro-2-(trifluoromethyl)phenyl)-2-((1-(pyrrolidin-1-ylmethyl)cyclopropyl)methoxy)-5,6,7,8-tetrahydropyrido[3,4-d]pyrimidin-4-yl)piperazin-2-yl)acetonitrile] | 7.80 | 7.26 | 7.10
12 | C=CC(=O)N1CCN(c2nc(OCC3(C(=O)N4CCN(C)CC4)CC3)nc3c2CCN(c2cccc4cccc(C)c24)C3)CC1CC#N (stereo not shown) [Compound 63, 2-(1-acryloyl-4-(7-(8-methylnaphthalen-1-yl)-2-((1-(4-methylpiperazine-1-carbonyl)cyclopropyl)methoxy)-5,6,7,8-tetrahydropyrido[3,4-d]pyrimidin-4-yl)piperazin-2-yl)acetonitrile] | 7.51 | 6.27 | 6.07
13 | C=CC(=O)N1CCN(c2nc(OCC3CCCCC3N(C)C)nc3c2CCN(c2cccc4ccccc24)C3)CC1CC#N (stereo not shown) [Compound 18, 2-(1-acryloyl-4-(2-((2-(dimethylamino)cyclohexyl)methoxy)-7-(naphthalen-1-yl)-5,6,7,8-tetrahydropyrido[3,4-d]pyrimidin-4-yl)piperazin-2-yl)acetonitrile] | 6.37 | 6.06 | 6.30
14 | C=CC(=O)N1CCN(c2nc(OCC3CCCC(N(C)C)C3)nc3c2CCN(c2cccc4cccc(C)c24)C3)CC1CC#N (stereo not shown) [Compound 5, 2-(1-acryloyl-4-(2-((3-(dimethylamino)cyclohexyl)methoxy)-7-(8-methylnaphthalen-1-yl)-5,6,7,8-tetrahydropyrido[3,4-d]pyrimidin-4-yl)piperazin-2-yl)acetonitrile] | 7.71 | 6.48 | 6.76
15 | C=CC(=O)N1CCN(c2nc(OCC3(CN4CCOCC4)CC3)nc3c2CCN(c2cccc(Cl)c2C(F)(F)F)C3)CC1CC#N (stereo not shown) [Compound 40, 2-(1-acryloyl-4-(7-(3-chloro-2-(trifluoromethyl)phenyl)-2-((1-(morpholinomethyl)cyclopropyl)methoxy)-5,6,7,8-tetrahydropyrido[3,4-d]pyrimidin-4-yl)piperazin-2-yl)acetonitrile] | 7.62 | – | 6.44
16 | C=CC(=O)N1CCN(c2nc(OCC3CCCC3N(C)C)nc3c2CCN(c2cccc(C)c2C)C3)CC1CC#N (stereo not shown) [Compound 28, 2-(1-acryloyl-4-(2-((2-(dimethylamino)cyclopentyl)methoxy)-7-(2,3-dimethylphenyl)-5,6,7,8-tetrahydropyrido[3,4-d]pyrimidin-4-yl)piperazin-2-yl)acetonitrile] | 7.62 | – | 6.86
